The record followed here is patent US20160223559A1, “TETRAZINE-CONTAINING COMPOUNDS AND SYNTHETIC METHODS THEREOF” (The Regents of the University of California, priority 2015, published 2016).

A short description of data set [1]: Fluorescence assays: fluorogenic turn-on reaction with dienophiles. Type of data set: physicochemical. The conditions noted are these: PBS pH 7.4, excitation at 480 nm. How it is done: All compounds were purified by HPLC and verified by LC-MS prior to quantitative activation experiments. Stock solutions in methanol were diluted into 1.5 mL of the appropriate solvent in a 1 cm×1 cm quartz cuvette. Measurements of solvent and pre-activation emission spectra for baseline values were made in at least triplicate, prior to addition of trans-cyclooctenol or cyclopropene 4 to initiate the fluorogenic reaction. 3-fold additional excess of trans-cyclooctenol and cyclopropene 4 were added for each fluorogenic reaction. Activation ratios were calculated from the peak emission intensity of the reaction product and the corresponding baseline intensity, and all the intensity data was background subtracted. Integration of the area under the emission intensity curves was used to validate the activation ratios.
Fluorescence emission of 2v, 5, 6 are depicted in FIG. 1A. All three compounds were dissolved in 2 μM phosphate-buffered saline (PBS) at pH 7.4. FIG. 5A depicts fluorescence emission of 2v in 2 μM phosphate-buffered saline (PBS) at pH 7.4. FIG. 5B depicts fluorescence emission of 2w, 7, 8. All three compounds were dissolved in 2 μM EtOH solution. […] FIG. 5C depicts fluorescence emission of 2w in 2 μM EtOH solution. FIG. 5D depicts fluorescence emission of 2x, 9, 10. […] FIG. 5E depicts fluorescence emission of 2x in 2 μM EtOH solution.

For data set [2], the system named is A33 antigens on live LS174T human colon carcinoma cells. Nature of the data set: Live-cell imaging of TCO-antibody pretargeted cells. It is filed as cell-based. The conditions noted are these: 5 μM probe, 30 minutes. How it is done: FIGS 1A-1D. Depicted in FIG. 1A are fluorescence emission spectra for compound 2v (lowest line) and compound 5 (middle line) and 6 (upper line) in PBS; excitation at 480 nm. FIG. 1B: Figure depicts equimolar solutions of compound 6 and 2v under excitation by a handheld UV lamp. FIGS. 1C-1D: Figures depict Live-cell imaging of LS174T cells. FIG. 1C: Cells were incubated (t=1 h) with 200 nM TCO-conjugated A33 antibodies, washed, and then imaged 30 minutes after the addition of 5 μM 2v. FIG. 1D: Cells lacking TCO were treated with 5 μM 2v for 30 minutes. Scale bar=[…] for both FIGS. 1C and 1D.
Cell culture and labeling. LS174T cells were grown in DMEM media supplemented with 10% fetal bovine serum, 1% L-glutamine, 1% penicillin/streptomycin. Cells were incubated in 5.0% carbon dioxide, 95% humidity at 37° C. The cells were grown in a T-75 tissue culture flask and seeded on a Lab-Tek II chamber slide two days prior to the experiment. A33 antibody (R&D Systems, MN) was modified by incubation with 50 equivalents of trans-cyclooctene NHS ester for 2 hours at room temperature. The A33 antibody was washed three times with 0.1M sodium bicarbonate buffer pH 8.3 using a 30 kDa spin filter before adding the antibody to the cells at a final concentration of 200 nM for 1 hour.
Image acquisition. […]

Data set [3] in a line: Storage and solution stability. It is filed as physicochemical. The conditions noted are these: stored at −20° C. for several months.
The nature of data set [4]: Solubility in DMF:PBS during kinetic measurement. Type of data set: physicochemical. As to conditions: DMF:PBS at DMF concentrations lower than 80%. How it is done: FIGS. 3A-3B. (E)-3-substituted-6-styryl-s-tetrazine reaction kinetics. FIG. 3A: Reaction scheme of (E)-cyclooct-4-enol and the series of tetrazines for kinetic characterization. Only one isomer is depicted for 15. FIG. 3B: Tetrazine kinetics were determined by reacting 1 mM tetrazine with an excess (10 mM) of (E)-cyclooct-4-enol in 50% DMF, 50% PBS 1×pH 7.4 buffer at 22° C. Second-order rate constants derived from the data are listed, and the corresponding curves for 2b, 2p, and 11 are shown in FIG. 4A. Tetrazine 2p was reacted in 80% DMF, 20% PBS due to its insolubility at lower DMF concentrations.
A NANODROP™ 2000c (Thermo Scientific) equipped with a cuvette reader and a stirrer was used in the kinetic measurements, and the disappearance of the tetrazine peak absorption around 520 nm was measured over time. Tetrazines at 1 mM were reacted with an excess 10 mM (E)-cyclooct-4-enol with the measurements commencing immediately upon (E)-cyclooct-4-enol addition (FIGS. 3A, 4A-4B). Solution conditions were maintained at 1:1 DMF:PBS pH 7.4 buffer (Sigma Life Science), and all the measurements were done at 22° C. room temperature. Tetrazine peak intensity at each time point was adjusted for background by extrapolation, as in the previous section. Tetrazine peak disappearance is shown as points in FIGS. 4A-4B, with the connecting lines resulting from the nonlinear fits made with Prism 6.0c. […]

For `Cc1nnc(/C=C/c2ccc(C(=O)O)c(-c3c4cc(F)c(=O)cc-4oc4cc(O)c(F)cc34)c2)nn1` [Cmpd 2v], the figures for the “increase in fluorescence intensity (turn-on)” value in data set [1] (after reaction with a TCO) and in data set [1] (after reaction with a cyclopropene) were 400 fold and 135 fold, respectively. Moreover, in data set [2] (cells lacking targeted dienophile), the background staining entry is “negligible background staining”. Moreover, in data set [2] (cells pretargeted with 200 nM TCO-conjugated A33 antibodies), the “confocal imaging of targeted dienophiles” value was “readily revealed the location of targeted dienophiles”.
Take `Cc1nnc(CCOS(C)(=O)=O)nn1` [Cmpd 1a]: in data set [3], the storage stability entry was “without noticeable decomposition”.
For the compound `C(=C\c1nnc(/C=C/c2ccccc2)nn1)/c1ccccc1` [Cmpd 2p], in data set [4], the solubility entry is listed as “insolubility”.
